Tests used:
Type in all cases: cell-based
bovine α1A receptor = molecular target: T1, bovine α1A receptor (Bos taurus, UniProt P18130); experiment: FLIPR Ca+2 influx assay, α1A; details: for EC50: HEK 293 cells stably expressing bovine α1A receptor; for Relative efficacy FLIPR α1A: relative efficacy compared to standard full agonist norepinephrine, HEK 293, bovine α1A
T1 construct: expressed in transfected cells; host or cells: HEK 293
T1 sequence (P18130 1-466): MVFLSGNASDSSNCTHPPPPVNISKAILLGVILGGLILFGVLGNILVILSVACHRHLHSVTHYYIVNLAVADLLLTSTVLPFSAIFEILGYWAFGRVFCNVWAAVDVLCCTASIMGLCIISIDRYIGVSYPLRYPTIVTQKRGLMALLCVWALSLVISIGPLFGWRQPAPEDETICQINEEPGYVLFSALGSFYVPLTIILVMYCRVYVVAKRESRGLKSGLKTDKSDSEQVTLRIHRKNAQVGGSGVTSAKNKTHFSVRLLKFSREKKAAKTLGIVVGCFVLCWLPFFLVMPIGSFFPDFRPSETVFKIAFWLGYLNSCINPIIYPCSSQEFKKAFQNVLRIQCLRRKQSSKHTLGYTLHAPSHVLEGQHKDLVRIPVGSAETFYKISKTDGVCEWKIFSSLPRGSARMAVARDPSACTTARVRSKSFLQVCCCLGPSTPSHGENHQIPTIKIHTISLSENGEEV
Experimental: (§1) The compounds disclosed herein are agonists of alpha 2B/2C adrenergic receptors. […] This assay is adequate for monitoring the intracellular Ca^2+ mobilization from fluorescent reading to evaluate receptor agonists.
(§2) FLIPR Ca+2 Influx Assay: HEK 293 cells stably expressing the bovine α1A receptor, the rat α1B receptor, the human α2A receptor and the chimeric G protein Gqi5, the human α2C receptor and the chimeric G protein Gqi5 and the mouse α2B receptor and the Gα16 protein were plated in poly-D-lysine coated 384 well plates at 15,000-25,000 cells per well and grown overnight in DMEM supplemented with 10% fetal bovine serum. For FLIPR (fluorometric image plate reader) evaluation, cells were washed 2-4 times with HBSS/HEPES Buffer (1× Hanks Buffered Salt Solution, 20 mM HEPES<pH 7.4) prior to the addition of Fluo-4-AM (4 uM Fluo-4-AM, 0.04% pluronic acid in HBSS/HEPES Buffer), a calcium-sensitive dye. Cells were loaded with Dye for 40 minutes at 30° C., then washed 4-8 times with HBSS/HEPES Buffer to remove excess dye. Cells were preincubated at 37° C. for 3 minutes prior to placement into the FLIPR instrument. The reaction was carried out at 37° C. and was initiated by the addition of the appropriate dilutions of compounds. The transient calcium was captured and the peak height of the calcium curve determined and utilized for calculation of EC50 and efficacy using ActivityBase. Data is stored in the ActivityBase database under the unique identifier “Test Occasion”, which reflects the results of an assay run on a particular date and the individual responsible for the assay. Norepinephrine was the standard full agonist for evaluating alpha1 and alpha2 receptor activity.

human α2A receptor = molecular target: T2, human α2A receptor (Homo sapiens, UniProt P08913); experiment: FLIPR Ca+2 influx assay, α2A; details: for EC50: HEK 293 cells stably expressing human α2A receptor and chimeric G protein Gqi5; for Relative efficacy FLIPR α2A: relative efficacy compared to standard full agonist norepinephrine, HEK 293, human α2A/Gqi5
T2 construct: expressed in transfected cells; host or cells: HEK 293
T2 sequence (P08913 1-465): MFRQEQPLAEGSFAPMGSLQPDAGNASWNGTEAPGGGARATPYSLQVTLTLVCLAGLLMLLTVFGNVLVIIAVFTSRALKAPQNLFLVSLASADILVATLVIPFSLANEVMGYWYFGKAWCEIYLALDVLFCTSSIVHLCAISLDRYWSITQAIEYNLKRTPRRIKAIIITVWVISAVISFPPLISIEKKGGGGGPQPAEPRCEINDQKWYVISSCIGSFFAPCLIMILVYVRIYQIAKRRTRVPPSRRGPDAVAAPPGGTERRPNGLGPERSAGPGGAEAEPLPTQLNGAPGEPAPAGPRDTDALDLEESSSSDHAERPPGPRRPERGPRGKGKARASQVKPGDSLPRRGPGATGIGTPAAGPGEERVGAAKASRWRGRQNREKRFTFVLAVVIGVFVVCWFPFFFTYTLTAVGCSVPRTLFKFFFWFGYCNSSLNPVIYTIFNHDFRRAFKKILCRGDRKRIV
Experimental: as §1, §2

human α2C receptor = molecular target: T3, human α2C receptor (Homo sapiens, UniProt P18825); experiment: FLIPR Ca+2 influx assay, α2C; details: for EC50: HEK 293 cells stably expressing human α2C receptor and chimeric G protein Gqi5; for Relative efficacy FLIPR α2C: relative efficacy compared to standard full agonist norepinephrine, HEK 293, human α2C/Gqi5
T3 construct: expressed in transfected cells; host or cells: HEK 293
T3 sequence (P18825 1-462): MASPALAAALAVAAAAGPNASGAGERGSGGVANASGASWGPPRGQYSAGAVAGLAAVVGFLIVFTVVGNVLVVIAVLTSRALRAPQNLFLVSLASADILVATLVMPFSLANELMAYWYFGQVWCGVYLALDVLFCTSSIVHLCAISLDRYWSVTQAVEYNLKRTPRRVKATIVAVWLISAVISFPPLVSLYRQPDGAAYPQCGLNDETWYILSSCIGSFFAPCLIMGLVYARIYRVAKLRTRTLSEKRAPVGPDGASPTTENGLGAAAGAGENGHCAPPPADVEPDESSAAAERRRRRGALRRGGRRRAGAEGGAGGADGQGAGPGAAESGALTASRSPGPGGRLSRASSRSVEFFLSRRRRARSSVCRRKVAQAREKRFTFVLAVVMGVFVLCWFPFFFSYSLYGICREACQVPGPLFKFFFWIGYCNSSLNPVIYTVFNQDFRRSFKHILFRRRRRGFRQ
Experimental: as §1, §2

mouse α2B receptor = molecular target: T4, mouse α2B receptor (Mus musculus, UniProt P30545); experiment: FLIPR Ca+2 influx assay, α2B; details: for Relative efficacy FLIPR α2B: relative efficacy compared to standard full agonist norepinephrine, HEK 293, mouse α2B/Gα16
T4 construct: expressed in transfected cells; host or cells: HEK 293
T4 sequence (P30545 1-453): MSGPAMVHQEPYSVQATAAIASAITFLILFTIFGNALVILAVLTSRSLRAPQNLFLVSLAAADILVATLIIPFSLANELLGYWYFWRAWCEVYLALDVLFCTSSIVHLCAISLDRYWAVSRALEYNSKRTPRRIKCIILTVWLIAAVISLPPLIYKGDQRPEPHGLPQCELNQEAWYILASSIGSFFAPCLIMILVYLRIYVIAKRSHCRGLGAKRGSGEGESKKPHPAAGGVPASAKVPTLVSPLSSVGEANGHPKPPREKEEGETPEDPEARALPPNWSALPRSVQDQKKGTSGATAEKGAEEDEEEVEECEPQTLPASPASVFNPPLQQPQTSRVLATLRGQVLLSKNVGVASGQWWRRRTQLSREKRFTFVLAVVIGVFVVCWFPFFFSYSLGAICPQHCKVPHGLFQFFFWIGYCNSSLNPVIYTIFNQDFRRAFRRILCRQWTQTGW
Experimental: as §1, §2

rat α1B receptor = molecular target: T5, rat α1B receptor (Rattus norvegicus, UniProt P15823); experiment: FLIPR Ca+2 influx assay, α1B; details: for EC50: HEK 293 cells stably expressing rat α1B receptor; for Relative efficacy FLIPR α1B: relative efficacy compared to standard full agonist norepinephrine, HEK 293, rat α1B
T5 construct: expressed in transfected cells; host or cells: HEK 293
T5 sequence (P15823 1-515): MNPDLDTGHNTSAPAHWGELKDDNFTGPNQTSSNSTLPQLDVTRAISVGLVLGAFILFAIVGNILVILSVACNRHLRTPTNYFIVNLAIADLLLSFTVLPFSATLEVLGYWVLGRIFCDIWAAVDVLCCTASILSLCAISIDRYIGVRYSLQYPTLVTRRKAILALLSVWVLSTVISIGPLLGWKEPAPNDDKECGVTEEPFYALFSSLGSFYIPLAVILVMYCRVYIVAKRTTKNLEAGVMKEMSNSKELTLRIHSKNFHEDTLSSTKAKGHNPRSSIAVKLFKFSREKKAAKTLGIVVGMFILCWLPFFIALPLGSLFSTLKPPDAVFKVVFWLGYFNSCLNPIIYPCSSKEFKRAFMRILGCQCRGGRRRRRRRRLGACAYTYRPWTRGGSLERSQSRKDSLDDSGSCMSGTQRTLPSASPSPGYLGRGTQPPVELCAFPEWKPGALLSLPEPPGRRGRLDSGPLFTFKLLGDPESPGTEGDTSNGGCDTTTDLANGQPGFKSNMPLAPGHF
Experimental: as §1, §2

[1] = HEK 293 cells stably expressing mouse α2B receptor and Gα16 protein

Structure (SMILES)	EC50 (bovine α1A receptor) [nM]	Relative efficacy FLIPR α1A (bovine α1A receptor)	EC50 (human α2A receptor) [nM]	Relative efficacy FLIPR α2A (human α2A receptor)	EC50 (human α2C receptor) [nM]	Relative efficacy FLIPR α2C (human α2C receptor)	EC50 (mouse α2B receptor; [1]) [nM]	Relative efficacy FLIPR α2B (mouse α2B receptor)	EC50 (rat α1B receptor) [nM]	Relative efficacy FLIPR α1B (rat α1B receptor)	EC50 FLIPR α2B (mouse α2B receptor; [1])
CCN(Cc1ccccn1)C1CCc2cccc(O)c2C1 (stereo not shown)	> 10000	0	> 10000	0	> 10000	0	733	0.28	> 10000	0	
CCN(Cc1ccncc1)C1CCc2cccc(OC)c2C1 (stereo not shown)	> 10000	0	203	0.74	253	0.72	78	0.91	> 10000	0	
CCCN(Cc1ccccn1)C1CCc2cccc(O)c2C1 (stereo not shown) [drawing 21]		ND (0.05)	> 10000	0	> 10000	0	33	0.95	> 10000	0	
CCCN(Cc1ccncc1)[C@@H]1CCc2cccc(O)c2C1	> 10000	0	> 10000	0	> 10000	0	4	0.8	> 10000	0	
CCCN(Cc1ccccn1)C1CCc2cccc(O)c2C1 (stereo not shown) [drawing 20]	> 10000	0	> 10000	0	> 10000	0	568	0.69	> 10000	0	
CCCN(Cc1ccncc1)[C@@H]1CCc2cccc(OC)c2C1	> 10000	0	424	0.34	557	0.67		1.02	> 10000	0	potent
CCCN(Cc1cccnc1)C1CCc2cccc(OC)c2C1 (stereo not shown)	> 10000	0	> 1000	0		ND (0.13)	820	0.47	> 10000	0	
CCN(Cc1cccnc1)C1CCc2cccc(OC)c2C1 (stereo not shown)	> 10000	0	442	0.51	652	0.52	614	0.26	> 10000	0	
CCN(Cc1ccccn1)C1CCc2cccc(OC)c2C1 (stereo not shown)	> 10000	0	> 10000	0	> 10000	0	647	0.14	> 10000	0	

Reference: patent publication US7829587B2, “Substituted 2-aminotetralin derivatives as selective alpha 2B agonist” (Allergan, Inc., priority 2008, dated 2010)
